For test [1], the target named is T1, human serotonin transporter (SERT) (Homo sapiens, UniProt P31645).
T1 construct: expressed in transfected cells; host or cells: CHO (hSERT-CHO), membrane preparation
The test can be described thus: Scintillation Proximity Assay (SPA) competition binding, [3H]citalopram, hSERT-CHO membranes.

Test [2] addresses human ERG potassium channel (hERG) (Homo sapiens, UniProt Q12809). Put plainly: cell-based. As for the experimental part:
Measure of the Effect on hERG Channel by Tail Current Recording Using In Vitro Rapid ICE™
The potency of the compounds of the invention in inhibiting human ERG potassium channel (hERG) tail current is assessed in a recombinant HEK293 cell line stably transfected with hERG cDNA using Rapid ICE™ (Rapid Ion Channel Electrophysiology) assay. Rapid ICE™ is an automated patch-clamp assay utilizing the PatchXpress 7000A system (Molecular Devices Corporation) or the QPatch HTX system (Sophion Bioscience A/S).
Briefly cells are cultivated for 24 to 72 hours before recordings in minimum essential medium supplemented with 10% FBS, 1% non-essential amino acids, 1% sodium pyruvate, 2 mM L-glutamine. The day of the experiment cells are detached with TrypLE and prepared to be loaded on the instrument. For PatchXpress cells are finally resuspended in 150 μl of Extracellular Buffer whereas for QPatch cells are resuspended in 7 ml Serum-Free Media containing 25 mM Hepes and Soybean trypsin inhibitor and immediately placed in the cell storage tank of the machine. The composition of the Extracellular Buffer is (mM): NaCl 137; KCl 4; CaCl2 1.8; MgCl2 1.0; D-glucose 10; N 2 hydroxyethylpiperazine-N′-2-ethanesulfonic acid (HEPES) 10; pH 7.4 with 1 M NaOH. The composition of the pipette solution is (mM): KCl 130; MgCl2 1.0; Ethylene glycol-bis(R-aminoethyl ether)-N,N,N′,N′-tetraacetic acid (EGTA) 5; MgATP 5; HEPES 10; pH 7.2 with 1 M KOH. The voltage protocol includes the following steps: step from −80 mV to −50 mV for 200 ms, +20 mV for 4.8 s, step to −50 mV for 5 s then step to the holding potential of −80 mV. Compounds of the invention are dissolved in DMSO and diluted in Extracellular Buffer to achieve final test concentrations (0.1, 1 and 10 μM) in 0.1% DMSO. The voltage protocol is run and recorded continuously during the experiment. The vehicle, corresponding to 0.1% DMSO in Extracellular Buffer, is then applied for 3 min followed by the test substance in triplicate. The standard combined exposure time is 5 min. The average of tail current amplitude values recorded from 4 sequential voltage pulses is used to calculate for each cell the effect of the test substance by calculating the residual current (% control) compared with vehicle pre-treatment. Data are reported as % inhibition for each concentration tested and IC50 values are estimated using DataXpress or QPatch software. At least two cells are tested, more if results diverge.

Test [3] has as its target T2, human norepinephrine transporter (NET) (Homo sapiens, UniProt P23975).
T2 construct: expressed in transfected cells; host or cells: CHO (hNET-CHO), membrane preparation
The test can be described thus: Scintillation Proximity Assay (SPA) competition binding, [3H]nisoxetine, hNET-CHO membranes. On the technique in general: Scintillation proximity formats need no separation of bound from free tracer.

In test [4] the target is T3, human dopamine transporter (DAT) (Homo sapiens, UniProt Q01959).
T3 construct: expressed in transfected cells; host or cells: CHO (hDAT-CHO), membrane preparation
T3 sequence (Q01959 whole entry): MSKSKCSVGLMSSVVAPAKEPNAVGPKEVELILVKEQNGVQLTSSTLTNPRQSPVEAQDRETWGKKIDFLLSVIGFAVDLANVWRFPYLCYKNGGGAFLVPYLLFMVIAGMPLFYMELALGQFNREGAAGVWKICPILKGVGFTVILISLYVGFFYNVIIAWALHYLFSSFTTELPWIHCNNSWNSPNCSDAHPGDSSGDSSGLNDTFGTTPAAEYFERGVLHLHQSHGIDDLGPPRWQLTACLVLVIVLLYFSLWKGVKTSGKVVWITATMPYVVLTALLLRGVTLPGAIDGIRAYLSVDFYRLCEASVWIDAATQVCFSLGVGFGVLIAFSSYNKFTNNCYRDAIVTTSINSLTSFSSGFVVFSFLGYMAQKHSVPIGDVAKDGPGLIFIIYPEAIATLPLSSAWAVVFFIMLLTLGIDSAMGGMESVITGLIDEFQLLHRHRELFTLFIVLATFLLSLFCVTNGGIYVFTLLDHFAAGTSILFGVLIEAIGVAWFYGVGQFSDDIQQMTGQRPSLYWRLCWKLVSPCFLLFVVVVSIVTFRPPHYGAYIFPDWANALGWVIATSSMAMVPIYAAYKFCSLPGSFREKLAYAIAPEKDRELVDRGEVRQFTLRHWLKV
Put plainly: Scintillation Proximity Assay (SPA) competition binding, [3H]WIN-35,428, hDAT-CHO membranes.

[5] abbreviates: read-out: pIC50 DAT (converted).

SMILES strings stand for the structures. Structures can show the parent of a compound that is named as a salt. Where two headings read alike, the source gives them in different places.

Sequence of human ERG potassium channel (hERG) (Q12809 whole entry): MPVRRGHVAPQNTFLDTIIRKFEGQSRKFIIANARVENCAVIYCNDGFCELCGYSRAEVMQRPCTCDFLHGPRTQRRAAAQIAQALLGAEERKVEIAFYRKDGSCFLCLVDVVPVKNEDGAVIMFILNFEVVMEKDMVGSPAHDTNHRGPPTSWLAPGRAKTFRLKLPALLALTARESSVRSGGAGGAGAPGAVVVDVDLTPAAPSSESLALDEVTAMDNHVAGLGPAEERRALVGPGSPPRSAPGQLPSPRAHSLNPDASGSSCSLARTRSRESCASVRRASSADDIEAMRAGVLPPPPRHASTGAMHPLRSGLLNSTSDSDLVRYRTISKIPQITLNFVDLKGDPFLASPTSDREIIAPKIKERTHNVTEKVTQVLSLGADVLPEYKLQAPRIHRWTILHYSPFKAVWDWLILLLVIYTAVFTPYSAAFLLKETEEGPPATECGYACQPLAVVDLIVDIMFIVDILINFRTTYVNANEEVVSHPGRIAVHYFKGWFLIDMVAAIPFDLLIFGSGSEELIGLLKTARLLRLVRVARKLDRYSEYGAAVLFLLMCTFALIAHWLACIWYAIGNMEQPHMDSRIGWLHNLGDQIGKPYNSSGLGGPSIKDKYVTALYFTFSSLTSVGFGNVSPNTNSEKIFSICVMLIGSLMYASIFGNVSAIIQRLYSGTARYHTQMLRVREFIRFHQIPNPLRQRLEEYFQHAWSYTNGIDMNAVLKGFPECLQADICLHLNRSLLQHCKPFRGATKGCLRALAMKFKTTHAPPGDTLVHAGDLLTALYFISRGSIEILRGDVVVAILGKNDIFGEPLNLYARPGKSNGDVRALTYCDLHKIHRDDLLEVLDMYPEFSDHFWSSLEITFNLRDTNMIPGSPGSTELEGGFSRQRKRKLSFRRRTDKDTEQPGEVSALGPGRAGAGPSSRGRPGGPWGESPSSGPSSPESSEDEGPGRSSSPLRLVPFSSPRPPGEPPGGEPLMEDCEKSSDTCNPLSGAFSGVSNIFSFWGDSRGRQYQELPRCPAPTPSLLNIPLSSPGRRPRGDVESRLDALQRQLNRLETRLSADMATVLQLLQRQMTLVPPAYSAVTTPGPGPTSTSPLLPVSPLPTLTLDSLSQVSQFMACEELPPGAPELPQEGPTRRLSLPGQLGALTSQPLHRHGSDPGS
T1 sequence (P31645 whole entry): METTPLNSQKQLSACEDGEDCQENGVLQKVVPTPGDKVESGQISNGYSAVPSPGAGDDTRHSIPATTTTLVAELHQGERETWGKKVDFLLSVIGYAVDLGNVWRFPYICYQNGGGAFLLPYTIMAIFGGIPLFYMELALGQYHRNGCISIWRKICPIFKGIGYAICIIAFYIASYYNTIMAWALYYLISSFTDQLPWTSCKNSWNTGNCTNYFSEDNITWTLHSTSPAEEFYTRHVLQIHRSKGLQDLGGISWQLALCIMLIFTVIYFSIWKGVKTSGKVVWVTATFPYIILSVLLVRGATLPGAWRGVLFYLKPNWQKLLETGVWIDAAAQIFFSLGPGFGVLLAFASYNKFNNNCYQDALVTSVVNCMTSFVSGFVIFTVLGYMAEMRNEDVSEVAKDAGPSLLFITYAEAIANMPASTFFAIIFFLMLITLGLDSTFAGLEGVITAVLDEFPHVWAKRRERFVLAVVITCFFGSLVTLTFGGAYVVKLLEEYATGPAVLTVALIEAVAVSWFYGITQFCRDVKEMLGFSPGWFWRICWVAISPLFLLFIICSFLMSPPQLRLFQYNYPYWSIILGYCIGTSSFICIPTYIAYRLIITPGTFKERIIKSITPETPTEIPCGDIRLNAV
T2 sequence (P23975 whole entry): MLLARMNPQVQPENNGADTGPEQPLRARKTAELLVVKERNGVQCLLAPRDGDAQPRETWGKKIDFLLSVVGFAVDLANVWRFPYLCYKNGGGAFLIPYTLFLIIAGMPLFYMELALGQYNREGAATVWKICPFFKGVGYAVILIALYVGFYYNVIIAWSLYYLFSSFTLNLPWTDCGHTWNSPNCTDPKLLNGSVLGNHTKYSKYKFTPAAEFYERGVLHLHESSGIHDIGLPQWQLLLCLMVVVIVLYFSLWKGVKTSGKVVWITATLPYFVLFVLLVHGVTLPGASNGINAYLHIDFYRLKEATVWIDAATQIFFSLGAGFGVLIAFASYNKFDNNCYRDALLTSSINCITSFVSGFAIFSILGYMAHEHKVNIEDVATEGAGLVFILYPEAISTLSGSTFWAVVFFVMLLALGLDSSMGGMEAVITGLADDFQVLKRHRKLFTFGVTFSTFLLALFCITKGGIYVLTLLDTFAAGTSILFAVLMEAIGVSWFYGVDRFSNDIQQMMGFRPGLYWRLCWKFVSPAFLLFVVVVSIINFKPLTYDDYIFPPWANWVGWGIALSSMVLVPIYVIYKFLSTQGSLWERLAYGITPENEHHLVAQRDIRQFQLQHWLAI

Regarding `Fc1ccc(C(c2ccc(F)cc2)N2CC[C@]3(CNCCC3(F)F)C2)cc1` (single isomer, unassigned) [Example 17, (5S or 5R)-2-[bis(4-fluorophenyl)methyl]-10,10-difluoro-2,7-diazaspiro[4.5]decane], the IC50 in test [1] is 13200 nM; in test [2], 3160 nM; in test [3], 1070 nM; in test [4] (pIC50 DAT) it was 22.9 nM.
On to `O=C1CCNC[C@]12CCN(C(c1ccc(F)cc1)c1ccc(F)cc1)C2` (single isomer, unassigned) [Example 10, (5S or 5R)-2-[bis(4-fluorophenyl)methyl]-2,7-diazaspiro[4.5]decan-10-one dihydrochloride salt], for which the IC50 in test [1] is 15500 nM; in test [2] (hERG tail current, HEK293 cells, read-out: pIC50 hERG (converted)), 5010 nM; in test [3], 6460 nM; in test [4] (setting [5]), 148 nM.
As for `CN1CCC(O)C2(CCN(C(c3ccc(F)cc3)c3ccc(F)cc3)C2)C1` (centres unmarked) [Example 4, 2-[bis(4-fluorophenyl)methyl]-7-methyl-2,7-diazaspiro[4.5]decan-10-ol], the IC50 in test [1] was 18600 nM; in test [2] it was 1580 nM; in test [3], 18200 nM; in test [4] (setting [5]), 195 nM.
For `OC1CCNCC12CCN(C(c1ccc(F)cc1)c1ccc(F)cc1)C2` (centres unmarked) [Example 3, 2-[bis(4-fluorophenyl)methyl]-2,7-diazaspiro[4.5]decan-10-ol], the IC50 in test [1] is 12900 nM; in test [2], 2510 nM; in test [3], 4470 nM; in test [4] (pIC50 DAT) it was 70.8 nM.
`Fc1ccc(C(c2ccc(F)cc2)N2CCC3(CC2)CNCCO3)cc1` [Example 31, 9-[bis(4-fluorophenyl)methyl]-1-oxa-4,9-diazaspiro[5.5]undecane]: the IC50 in test [1] is 2630 nM; in test [2] it was 3160 nM; in test [3], 2040 nM; in test [4] (pIC50 DAT), 46.8 nM.
Turning to `ON=C1CCNCC12CCN(C(c1ccc(F)cc1)c1ccc(F)cc1)C2` (single isomer, unassigned) [Example 16, N-[(5S or 5R,10E)-2-[bis(4-fluorophenyl)methyl]-2,7-diazaspiro[4.5]decan-10-ylidene]hydroxylamine], the IC50 was 6610 nM in test [1], 2510 nM in test [2], 6310 nM in test [3] and 49 nM in test [4] (pIC50 DAT).
With `Fc1ccc(C(c2ccc(F)cc2)N2CCC3(CNCCO3)C2)cc1` (centres unmarked) [Example 29, 2-[bis(4-fluorophenyl)methyl]-6-oxa-2,9-diazaspiro[4.5]decane], the IC50 in test [1] was 6920 nM; in test [2], 6310 nM; in test [3] it was 1380 nM; in test [4] (setting [5]) it was 107 nM.
Regarding `O=C1CCNCC12CCN(C(c1ccc(F)cc1)c1ccc(F)cc1)C2` (centres unmarked) [Example 1, 2-[bis(4-fluorophenyl)methyl]-2,7-diazaspiro[4.5]decan-10-one], the IC50 in test [1] was 22400 nM; in test [2], 2000 nM; in test [3] it was 3800 nM; in test [4] (setting [5]), 129 nM.

For the origin of these results see US20170260185A1 (priority 2014, published 2017).
